How the values were obtained:
Assay type in all cases: in vivo, mouse
[1] = tested on: 5-HT4 receptor; assay: Ingestion of food after 24 h food deprivation and i.p. drug injection (protocol of Lucas et al., 1998); settings: for diminution of ingestion of food vs NaCl-treated mice of same genotype / effect on ingestion of food vs NaCl-treated mice of same genotype: MDMA 10 mg/kg, RS 39604 0.5 mg/kg i.p.; for effect on ingestion of food vs NaCl-treated mice of same genotype: 3 h after administration
Description: Each drug used to treat the wild mice disabled for the gene coding for the 5-HT4 receptor was diluted extemporaneously in a saline solution of NaCl (0.9%) and injected in a systemic manner (i.p.). The injection volume of each treatment was 200 μL for 30 g. The wild mice or those disabled for the 5-HT4 receptor (n=35) received the following treatments: NaCl, MDMA (or ecstasy or 3,4-N-methylene dioxymethamphetamine, SIGMA, 10 mg/kg), RS 39604, […]/MDMA.
(§1) The MDMA (10 mg/kg, Sigma, user license 9900431 S, V. Compan) and RS 39604 (0.5 mg/kg), antagonist of the 5-HT4 receptor, were administered by themselves or in a combined treatment to the wild mice or those deprived of the 5-HT4 receptor (n=12-17 by genotype and pharmacological products).
Ingestion of food by the wild mice and the mice disabled for the gene coding for the 5-HT4 receptor was evaluated in accordance with the test protocol described by Lucas et al., 1998. The different mice were isolated for a habituation period of three days in the presence of food and water supplied ad libitum during which the weights of the mice and of the food consumed were measured daily at the same hour. On the fourth day the mice were deprived of their food for 24 hours. The drugs were injected such as NaCl after the food deprivation period to determine the effect of the different treatments on ingestion of food. Food was reintroduced into each cage after an interval of 10 min for the other treatments. Three successive weighings of the food were then carried out 30 min, 1 h and 3 h after the reintroduction of the food.

[2] = tested on: leptine; assay: Plasma leptine rates after administration of NaCl or MDMA; settings: single administration MDMA 10 mg/kg, wild or mutant mice; p=0.95
Description: The data represents the average±the standard deviation from the average of the leptine rates of the plasma expressed in ng/mL after the administration of NaCl (0.9%) or of MDMA (10 mg/kg) in the wild (+/+) or the disabled (−/−) mice for the gene coding for the 5-HT4 receptor, aged six to 10 months on the average. **p<0.01 significant effect of the genotype after a variance analysis (ANOVA) followed by an F test of Scheffé.

[3] = tested on: 5-HT4 receptor; assay: Constraint stress (forced immobilization 110 min): ingestion of food and weight; settings: RS 39604 1 mg/kg, not shown
Description: Each of the tests was divided into three phases: A period of habituation (7 days), the day of the constraint stress (immobilization for 110 min) and a recovery stage (10 days). The mice were divided into a control group and a constraint group. On the stress day the wild mice disabled for the gene coding for the 5-HT4 receptor received an injection of NaCl […], 1 mg/kg of RS 39604, antagonist of the 5-HT4 receptor. […] Ingestion of food was then measured 2 h 30 min, 3 and 5 h and each day during the recovery period.

[4] = tested on: 5-HT4 receptor; assay: Taking of food in mice nourished ad libitum (dose selection for RS 39604); settings: 0.5 mg/kg, not illustrated
Description: as §1

SMILES | diminution of ingestion of food vs NaCl-treated mice of same genotype ([1]; mice lacking the 5-HT4 receptor (−/−), 30 min after administration) | diminution of ingestion of food vs NaCl-treated mice of same genotype ([1]; mice lacking the 5-HT4 receptor (−/−), 1 h after administration) | effect on ingestion of food vs NaCl-treated mice of same genotype ([1]; mice lacking the 5-HT4 receptor (−/−)) | diminution of ingestion of food vs NaCl-treated mice of same genotype ([1]; wild mice (+/+), 30 min after administration, 24 h food deprivation) | diminution of ingestion of food vs NaCl-treated mice of same genotype ([1]; wild mice (+/+), 1 h after administration, 24 h food deprivation) | effect on ingestion of food vs NaCl-treated mice of same genotype ([1]; wild mice (+/+), 24 h food deprivation) | rates of leptine in plasma [2] | effect of treatment alone on ingestion of food (statistical analysis of genotype, treatment, interaction) ([1]; RS 39604 0.5 mg/kg i.p. alone, wild and mutant mice, 24 h food deprivation) | ingestion of food after constraint stress preceded by injection ([3]; wild female mice) | weight losses after constraint stress vs NaCl-treated animals ([3]; wild mice) | taking of food vs mice treated with NaCl or other dosages ([4]; mutant animals for the 5-HT4 receptors) | taking of food vs mice treated with NaCl or other dosages ([4]; nourished wild mice ad libitum)
CNC(C)Cc1ccc2c(c1)OCO2 (stereo not drawn) [MDMA, 3,4-N-methylene dioxymethamphetamine] | −69.07% | −68.49% | no longer observed | −95.38% | −88.56% | absent | does not modify the rates of leptine | – | – | – | – | –
COc1cc(COc2cc(N)c(Cl)cc2C(=O)CCC2CCN(CCNS(C)(=O)=O)CC2)cc(OC)c1 [RS 39604] | – | – | – | – | – | – | – | does not reveal significant | not modified | reduced the weight losses | without effect | increase of the taking of food
